Laboratory results from patent US7504403B2, “Substituted heterocyclic compounds and methods of use” (Amgen Inc., priority 2004, dated 2009).

tested on: LPS induced TNF release; experiment: Lipopolysaccharide-Activated THP1 Cell TNF Production Assay; assay type: cell-based; details: Homo sapiens, THP-1
Procedure: Lipopolysaccharide-Activated THP1 Cell TNF Production Assay
THP1 cells are resuspended in fresh THP1 media (RPMI 1640, 10% heat-inactivated FBS, 1×PGS, 1×NEAA, plus 30 μM βME) at a concentration of 1E6/mL. One hundred microliters of cells per well are plated in a polystyrene 96-well tissue culture. One microgram per mL of bacterial LPS is prepared in THP1 media and is transferred to the wells. Test compounds are dissolved in 100% DMSO and are serially diluted 3 fold in a polypropylene 96-well microtiter plate (drug plate). HI control and LO control wells contain only DMSO. One microliter of test compound from the drug plate followed by 10 μL of LPS are transferred to the cell plate. The treated cells are induced to synthesize and secrete TNF-α at 37° C. for 3 h. Forty microliters of conditioned media are transferred to a 96-well polypropylene plate containing 110 μL of ECL buffer (50 mM Tris-HCl pH 8.0, 100 mM NaCl, 0.05% Tween 20, 0.05% NaN3 and 1%FBS) supplemented with 0.44 nM MAB610 monoclonal Ab (R&D Systems), 0.34 nM ruthenylated AF210NA polyclonal Ab (R&D Systems) and 44 μg/mL sheep anti-mouse M280 Dynabeads (Dynal). After a 2 h incubation at room temperature with shaking, the reaction is read on the ECL M8 Instrument (IGEN Inc.). A low voltage is applied to the ruthenylated TNF-α immune complexes, which in the presence of TPA (the active component in Origlo), results in a cyclical redox reaction generating light at […]. The amount of secreted TNF-α in the presence of compound compared with that in the presence of DMSO vehicle alone (HI control) is calculated using the formula: % control (POC)=(cpd−average LO)/(average HI−average LO)*100. Data (consisting of POC and inhibitor concentration in μM) is fitted to a 4-parameter equation (y=A+((B−A)/(1+((x/C)^D))), where A is the minimum y (POC) value, B is the maximum y (POC), C is the x (cpd concentration) at the point of inflection and D is the slope factor) using a Levenburg-Marquardt non-linear regression algorithm.

IC50, ≤ 20 µM:
CC(Cc1cccc(C(C)(C)N)c1)Nc1nccc(N2CCC(=O)N3CC=C(c4ccccc4)N=C32)n1 (centres unmarked) [Example 65, 1-(2-{2-[3-(1-Amino-1-methyl-ethyl)-phenyl]-1-methyl-ethylamino}-pyrimidin-4-yl)-8-phenyl-1,2,3,6-tetrahydro-pyrimido[1,2-a]pyrimidin-4-one]
CC(Nc1nccc(N2CC(O)Cn3c2nc(-c2ccccc2)cc3=O)n1)c1ccccc1 (centres unmarked) [Example 66, 7-Hydroxy-2-phenyl-9-[2-(1-phenyl-ethylamino)-pyrimidin-4-yl]-6,7,8,9-tetrahydro-pyrimido[1,2-a]pyrimidin-4-one]
O=c1cc(-c2ccccc2)cc2n1CCCN2c1ccnc(NCCc2ccccc2)n1 [Example 74, 1-(2-Phenethylamino-pyrimidin-4-yl)-8-phenyl-1,2,3,4-tetrahydro-pyrido[1,2-a]pyrimidin-6-one]
O=c1cc(-c2ccccc2)cc2n1CCCN2c1ccnc(NCCc2ccccc2Cl)n1 [Example 75, 1-{2-[2-(2-Chloro-phenyl)-ethylamino]-pyrimidin-4-yl}-8-phenyl-1,2,3,4-tetrahydro-pyrido[1,2-a]pyrimidin-6-one]
O=c1cc(-c2ccccc2)cc2n1CCCN2c1ccnc(NCCc2c(Cl)cccc2Cl)n1 [Example 76, 1-{2-[2-(2,6-Dichloro-phenyl)-ethylamino]-pyrimidin-4-yl}-8-phenyl-1,2,3,4-tetrahydro-pyrido[1,2-a]pyrimidin-6-one]
O=c1cc(-c2ccccc2)cc2n1CCCN2c1ccnc(NCCc2ccc(Cl)cc2Cl)n1 [Example 77, 1-{2-[2-(2,4-Dichloro-phenyl)-ethylamino]-pyrimidin-4-yl}-8-phenyl-1,2,3,4-tetrahydro-pyrido[1,2-a]pyrimidin-6-one]
C[C@H](Nc1nccc(N2CCCn3c2cc(-c2ccccc2)cc3=O)n1)c1ccccc1 [Example 78]
C[C@H](CNc1nccc(N2CCCn3c2cc(-c2ccccc2)cc3=O)n1)c1ccccc1 [Example 79]
COc1ccc([C@H](C)Nc2nccc(N3CCCn4c3cc(-c3ccccc3)cc4=O)n2)cc1 [Example 80, 1-{2-[(1S)-(4-Methoxy-phenyl)-ethylamino]-pyrimidin-4-yl}-8-phenyl-1,2,3,4-tetrahydro-pyrido[1,2-a]pyrimidin-6-one]
C[C@H](Nc1nccc(N2CCCn3c2cc(-c2ccccc2)cc3=O)n1)c1cccc(Br)c1 [Example 81, 1-{2-(S)-[1-(3-Bromo-phenyl)-ethylamino]-pyrimidin-4-yl}-8-phenyl-1,2,3,4-tetrahydro-pyrido[1,2-a]pyrimidin-6-one]
C[C@H](Nc1nccc(N2CCCn3c2cc(-c2ccccc2)cc3=O)n1)c1cccc(N2CCNCC2)c1 [Example 82, 8-Phenyl-1-{2-(S)-[1-(3-piperazin-1-yl-phenyl) -ethylamino]-pyrimidin-4-yl}-1,2,3,4-tetrahydro-pyrido[1,2-a]pyrimidin-6-one]
CC(Cc1cccc(CO)c1)Nc1nccc(N2CCCn3c2cc(-c2ccccc2)cc3=O)n1 (centres unmarked) [Example 83, 1-{2-[2-(3-Hydroxymethyl-phenyl)-1-methyl-ethylamino]-pyrimidin-4-yl}-8-phenyl-1,2,3,4-tetrahydro-pyrido[1,2-a]pyrimidin-6-one]
CC(Cc1cccc(CN)c1)Nc1nccc(N2CCCn3c2cc(-c2ccccc2)cc3=O)n1 (centres unmarked) [Example 84, 1-{2-[2-(3-Aminomethyl-phenyl)-1-methyl-ethylamino]-pyrimidin-4-yl}-8-phenyl-1,2,3,4-tetrahydro-pyrido[1,2-a]pyrimidin-6-one]
O=c1cc(-c2ccccc2)cc2n1CCCN2c1cc(NCCc2ccccc2)ncn1 [Example 85, 1-(6-Phenethylamino-pyrimidin-4-yl)-8-phenyl-1,2,3,4-tetrahydro-pyrido[1,2-a]pyrimidin-6-one]
